{"source": "patent EP4603105A1", "about": "“PHARMACEUTICAL COMPOSITION CONTAINING CYCLIC COMPOUND HAVING SELECTIVE KRAS INHIBITORY EFFECT AGAINST HRAS AND NRAS” (CHUGAI SEIYAKU KABUSHIKI KAISHA, priority 2022, dated 2024)", "key": {"[1]": {"biological_target": "GDP-bound NRAS wild-type protein (Homo sapiens, UniProt P01111)", "sequence (P01111 whole entry)": "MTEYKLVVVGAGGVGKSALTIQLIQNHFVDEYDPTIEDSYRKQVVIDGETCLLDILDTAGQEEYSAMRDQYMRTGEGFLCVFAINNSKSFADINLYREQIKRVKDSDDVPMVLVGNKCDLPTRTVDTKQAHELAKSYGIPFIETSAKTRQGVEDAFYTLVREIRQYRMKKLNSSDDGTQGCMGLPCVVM", "test": "Binding to NRAS by surface plasmon resonance (SPR), KD and KD ratio to KRAS", "settings": "ratio of KD value for GDP-bound NRAS wild-type protein to KD value for KRAS (SPR)", "how_it_was_run": "(§1)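 Affinity is measured by surface plasmon resonance at 30°C against captured, GDP-loaded RAS carrying a biotinylated Avi tag. Compounds are titrated by single-cycle kinetics, and KD comes from a 1:1 fit.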"}, "HRAS wild-type protein": {"biological_target": "HRAS wild-type protein (Homo sapiens, UniProt P01112)", "sequence (P01112 whole entry)": "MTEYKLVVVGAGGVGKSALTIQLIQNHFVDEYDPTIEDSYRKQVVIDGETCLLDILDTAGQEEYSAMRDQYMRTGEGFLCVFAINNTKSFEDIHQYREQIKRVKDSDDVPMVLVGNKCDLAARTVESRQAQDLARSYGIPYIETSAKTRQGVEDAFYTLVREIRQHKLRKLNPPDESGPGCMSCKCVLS", "test": "Binding to HRAS by surface plasmon resonance (SPR), KD and KD ratio to KRAS", "settings": "ratio of KD value for HRAS wild-type protein to KD value for KRAS (SPR)", "how_it_was_run": "as §1"}, "[2]": {"tested_on": "human lung cancer strain NCI-H441", "format": "cell-based", "how_it_was_run": "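Readout: […] after the ATP-based reagent. Compound: serial dilutions in dimethyl sulfoxide.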"}}}
{"smiles": "CCO[C@@H]1C[C@H]2C(=O)NC3(CCC3)C(=O)N(C)[C@@H](C(CC)CC)C(=O)N3CCC[C@@H]3CC(=O)N(C)[C@@H](CC3CC3)C(=O)N[C@@H]([C@@H](C)CC)C(=O)N(C)CC(=O)N(C)[C@H]3C/C=C\\CCN(C3=O)[C@@H](Cc3ccc(C(F)(F)F)cc3)C(=O)N(C)CC(=O)N[C@@H](CCc3cc(F)c(C(F)(F)F)c(F)c3)C(=O)N2C1", "note": "[PP1612]", "values": [{"measurement": "NRAS /KRAS", "setting": "[1]", "value": "B (a compound having 3 or more and less than 10 is denoted as B)"}, {"measurement": "HRAS /KRAS", "setting": "HRAS wild-type protein", "value": "B (a compound having 3 or more and less than 10 is denoted as B)"}, {"measurement": "IC50", "setting": "[2]", "value": 61.9, "unit": "nM"}]}
{"smiles": "CCO[C@@H]1C[C@H]2C(=O)NC3(CCC3)C(=O)N(C)[C@@H](C3CCCC3)C(=O)N3CCC[C@@H]3CC(=O)N(C)[C@@H](CC3CC3)C(=O)N[C@@H]([C@@H](C)CC)C(=O)N(C)CC(=O)N(C)[C@H]3C/C=C\\CCN(C3=O)[C@@H](Cc3ccc(C(F)(F)F)cc3)C(=O)N(C)CC(=O)N[C@@H](CCc3cc(F)c(C(F)(F)F)c(F)c3)C(=O)N2C1", "note": "[PP1613]", "values": [{"measurement": "NRAS /KRAS", "setting": "[1]", "value": "B (a compound having 3 or more and less than 10 is denoted as B)"}, {"measurement": "HRAS /KRAS", "setting": "HRAS wild-type protein", "value": "B (a compound having 3 or more and less than 10 is denoted as B)"}, {"measurement": "IC50", "setting": "[2]", "value": 14.7, "unit": "nM"}]}
{"smiles": "CCO[C@@H]1C[C@H]2C(=O)NC3(CC(F)(F)C3)C(=O)N(C)[C@@H](C(CC)CC)C(=O)N3CCC[C@@H]3CC(=O)N(C)[C@@H](CC3CC3)C(=O)N[C@@H]([C@@H](C)CC)C(=O)N(C)CC(=O)N(C)[C@H]3C/C=C\\CCN(C3=O)[C@@H](Cc3ccc(C(F)(F)F)cc3)C(=O)N(C)CC(=O)N[C@@H](CCc3cc(F)c(C(F)(F)F)c(F)c3)C(=O)N2C1", "note": "[PP1614]", "values": [{"measurement": "NRAS /KRAS", "setting": "[1]", "value": "A (a compound having 10 or more and less than 20 is denoted as A)"}, {"measurement": "HRAS /KRAS", "setting": "HRAS wild-type protein", "value": "A (a compound having 10 or more and less than 20 is denoted as A)"}, {"measurement": "IC50", "setting": "[2]", "value": 54.2, "unit": "nM"}]}
{"smiles": "CCO[C@@H]1C[C@H]2C(=O)NC3(CC(F)(F)C3)C(=O)N(C)[C@@H](C3CCCC3)C(=O)N3CCC[C@@H]3CC(=O)N(C)[C@@H](CC3CC3)C(=O)N[C@@H]([C@@H](C)CC)C(=O)N(C)CC(=O)N(C)[C@H]3C/C=C\\CCN(C3=O)[C@@H](Cc3ccc(C(F)(F)F)cc3)C(=O)N(C)CC(=O)N[C@@H](CCc3cc(F)c(C(F)(F)F)c(F)c3)C(=O)N2C1", "note": "[PP1615]", "values": [{"measurement": "NRAS /KRAS", "setting": "[1]", "value": "B (a compound having 3 or more and less than 10 is denoted as B)"}, {"measurement": "HRAS /KRAS", "setting": "HRAS wild-type protein", "value": "B (a compound having 3 or more and less than 10 is denoted as B)"}, {"measurement": "IC50", "setting": "[2]", "value": 20.9, "unit": "nM"}]}
{"smiles": "CCO[C@@H]1C[C@H]2C(=O)NC3(CCC3)C(=O)N(C)[C@@H](C3CCCC3)C(=O)N3CCC[C@@H]3CC(=O)N(C)[C@@H](CC3CC3)C(=O)N[C@@H]([C@@H](C)CC)C(=O)N(C)CC(=O)N(C)[C@H]3C/C=C\\CCN(C3=O)[C@@H](Cc3ccc(C(F)(F)F)cc3)C(=O)N(C)CC(=O)N[C@@H](CCc3ccc(C(F)(F)F)c(OC)c3)C(=O)N2C1", "note": "[PP1616]", "values": [{"measurement": "NRAS /KRAS", "setting": "[1]", "value": "B (a compound having 3 or more and less than 10 is denoted as B)"}, {"measurement": "HRAS /KRAS", "setting": "HRAS wild-type protein", "value": "B (a compound having 3 or more and less than 10 is denoted as B)"}, {"measurement": "IC50", "setting": "[2]", "value": 33.5, "unit": "nM"}]}
{"smiles": "CCO[C@@H]1C[C@H]2C(=O)NC3(CC(C)(C)C3)C(=O)N(C)[C@@H](C3CCCC3)C(=O)N3CCC[C@@H]3CC(=O)N(C)[C@@H](CC)C(=O)N[C@@H]([C@@H](C)CC)C(=O)N(C)CC(=O)N(C)[C@H]3C/C=C\\CCN(C3=O)[C@@H](CC3CCCCC3)C(=O)N(C)CC(=O)N[C@@H](CCc3cc(F)c(C(F)(F)F)c(F)c3)C(=O)N2C1", "note": "[PP1620]", "values": [{"measurement": "NRAS /KRAS", "setting": "[1]", "value": "B (a compound having 3 or more and less than 10 is denoted as B)"}, {"measurement": "HRAS /KRAS", "setting": "HRAS wild-type protein", "value": "B (a compound having 3 or more and less than 10 is denoted as B)"}, {"measurement": "IC50", "setting": "[2]", "value": 170, "unit": "nM"}]}
{"smiles": "CCO[C@@H]1C[C@H]2C(=O)NC3(CC(C)(C)C3)C(=O)N(C)[C@@H](C(CC)CC)C(=O)N(C)C(CC)CC(=O)N(C)[C@@H](CC)C(=O)N[C@@H]([C@@H](C)CC)C(=O)N(C)CC(=O)N(C)[C@H]3C/C=C\\CCN(C3=O)[C@@H](Cc3ccc(C(F)(F)F)cc3)C(=O)N(C)CC(=O)N[C@@H](CCc3cc(F)c(C(F)(F)F)c(F)c3)C(=O)N2C1", "note": "(stereo partly drawn) [PP1622]", "values": [{"measurement": "NRAS /KRAS", "setting": "[1]", "value": "A (a compound having 10 or more and less than 20 is denoted as A)"}, {"measurement": "HRAS /KRAS", "setting": "HRAS wild-type protein", "value": "A (a compound having 10 or more and less than 20 is denoted as A)"}, {"measurement": "IC50", "setting": "[2]", "value": 28.1, "unit": "nM"}]}
{"smiles": "CCO[C@@H]1C[C@H]2C(=O)NC3(CC(C)(C)C3)C(=O)N(C)[C@@H](C3CCCC3)C(=O)N(C)[C@H](CC)CC(=O)N(C)[C@@H](CC)C(=O)N[C@@H]([C@@H](C)CC)C(=O)N(C)CC(=O)N(C)[C@H]3C/C=C\\CCN(C3=O)[C@@H](Cc3ccc(C(F)(F)F)cc3)C(=O)N(C)CC(=O)N[C@@H](CCc3cc(F)c(C(F)(F)F)c(F)c3)C(=O)N2C1", "note": "[PP1623]", "values": [{"measurement": "NRAS /KRAS", "setting": "[1]", "value": "A (a compound having 10 or more and less than 20 is denoted as A)"}, {"measurement": "HRAS /KRAS", "setting": "HRAS wild-type protein", "value": "A (a compound having 10 or more and less than 20 is denoted as A)"}, {"measurement": "IC50", "setting": "[2]", "value": 4.5, "unit": "nM"}]}
{"smiles": "CCO[C@@H]1C[C@H]2C(=O)NC3(CCC3)C(=O)N(C)[C@@H](C(CC)CC)C(=O)N(C)[C@H](CC)CC(=O)N(C)[C@@H](CC)C(=O)N[C@@H]([C@@H](C)CC)C(=O)N(C)CC(=O)N(C)[C@H]3C/C=C\\CCN(C3=O)[C@@H](Cc3ccc(C(F)(F)F)cc3)C(=O)N(C)CC(=O)N[C@@H](CCc3cc(F)c(C(F)(F)F)c(F)c3)C(=O)N2C1", "note": "[PP1624]", "values": [{"measurement": "NRAS /KRAS", "setting": "[1]", "value": "A (a compound having 10 or more and less than 20 is denoted as A)"}, {"measurement": "HRAS /KRAS", "setting": "HRAS wild-type protein", "value": "A (a compound having 10 or more and less than 20 is denoted as A)"}, {"measurement": "IC50", "setting": "[2]", "value": 55.8, "unit": "nM"}]}
{"smiles": "CCO[C@@H]1C[C@H]2C(=O)NC3(CCC3)C(=O)N(C)[C@@H](C3CCCC3)C(=O)N(C)[C@H](CC)CC(=O)N(C)[C@@H](CC)C(=O)N[C@@H]([C@@H](C)CC)C(=O)N(C)CC(=O)N(C)[C@H]3C/C=C\\CCN(C3=O)[C@@H](Cc3ccc(C(F)(F)F)cc3)C(=O)N(C)CC(=O)N[C@@H](CCc3cc(F)c(C(F)(F)F)c(F)c3)C(=O)N2C1", "note": "[PP1625]", "values": [{"measurement": "NRAS /KRAS", "setting": "[1]", "value": "B (a compound having 3 or more and less than 10 is denoted as B)"}, {"measurement": "HRAS /KRAS", "setting": "HRAS wild-type protein", "value": "B (a compound having 3 or more and less than 10 is denoted as B)"}, {"measurement": "IC50", "setting": "[2]", "value": 20.2, "unit": "nM"}]}
{"smiles": "CCO[C@@H]1C[C@H]2C(=O)NC3(CC(F)(F)C3)C(=O)N(C)[C@@H](C(CC)CC)C(=O)N(C)[C@H](CC)CC(=O)N(C)[C@@H](CC)C(=O)N[C@@H]([C@@H](C)CC)C(=O)N(C)CC(=O)N(C)[C@H]3C/C=C\\CCN(C3=O)[C@@H](Cc3ccc(C(F)(F)F)cc3)C(=O)N(C)CC(=O)N[C@@H](CCc3cc(F)c(C(F)(F)F)c(F)c3)C(=O)N2C1", "note": "[PP1626]", "values": [{"measurement": "NRAS /KRAS", "setting": "[1]", "value": "A (a compound having 10 or more and less than 20 is denoted as A)"}, {"measurement": "HRAS /KRAS", "setting": "HRAS wild-type protein", "value": "A (a compound having 10 or more and less than 20 is denoted as A)"}, {"measurement": "IC50", "setting": "[2]", "value": 108, "unit": "nM"}]}
{"smiles": "CCO[C@@H]1C[C@H]2C(=O)NC3(CC(F)(F)C3)C(=O)N(C)[C@@H](C3CCCC3)C(=O)N(C)[C@H](CC)CC(=O)N(C)[C@@H](CC)C(=O)N[C@@H]([C@@H](C)CC)C(=O)N(C)CC(=O)N(C)[C@H]3C/C=C\\CCN(C3=O)[C@@H](Cc3ccc(C(F)(F)F)cc3)C(=O)N(C)CC(=O)N[C@@H](CCc3cc(F)c(C(F)(F)F)c(F)c3)C(=O)N2C1", "note": "[PP1627]", "values": [{"measurement": "NRAS /KRAS", "setting": "[1]", "value": "A (a compound having 10 or more and less than 20 is denoted as A)"}, {"measurement": "HRAS /KRAS", "setting": "HRAS wild-type protein", "value": "A (a compound having 10 or more and less than 20 is denoted as A)"}, {"measurement": "IC50", "setting": "[2]", "value": 22.9, "unit": "nM"}]}
{"smiles": "CCO[C@@H]1C[C@H]2C(=O)NC3(CC(C)(C)C3)C(=O)N(C)[C@@H](C(CC)CC)C(=O)N(C)[C@H](CC)CC(=O)N(C)[C@@H](CC3CC3)C(=O)N[C@@H]([C@@H](C)CC)C(=O)N(C)CC(=O)N(C)[C@H]3C/C=C\\CCN(C3=O)[C@@H](Cc3ccc(C(F)(F)F)cc3)C(=O)N(C)CC(=O)N[C@@H](CCc3cc(F)c(C(F)(F)F)c(F)c3)C(=O)N2C1", "note": "[PP1628]", "values": [{"measurement": "NRAS /KRAS", "setting": "[1]", "value": "A (a compound having 10 or more and less than 20 is denoted as A)"}, {"measurement": "HRAS /KRAS", "setting": "HRAS wild-type protein", "value": "A (a compound having 10 or more and less than 20 is denoted as A)"}, {"measurement": "IC50", "setting": "[2]", "value": 150, "unit": "nM"}]}
